Laboratory results published in ChEMBL document CHEMBL1201862, “PubChem BioAssay data set” (2004).
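Dose response: 5 concentrations. Exposure: 48 h. Format: 96-well plates. Endpoint: linear interpolation; highest concentration if not reached. Abbreviation: GI50, concentration required for 50% inhibition of growth.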 Active and inactive are the calls of the source. No stated cut-off is given here; in the data, active = GI50 up to about 1.1 µM and inactive = higher.

Columns and labels:
Test in all cases: NCI tumour cell line growth inhibition, 48 h
[1] = tested on: 786-0
[2] = tested on: A498
[3] = tested on: A549
[4] = tested on: ACHN
[5] = tested on: BT-549
[6] = tested on: CAKI-1
[7] = tested on: CCRF-CEM
[8] = tested on: COLO 205
[9] = tested on: DU-145
[10] = tested on: EKVX
[11] = tested on: HCC 2998
[12] = tested on: HCT-116
[13] = tested on: HCT-15
[14] = tested on: HL-60
[15] = tested on: HOP-62
[16] = tested on: HOP-92
[17] = tested on: HT-29
[18] = tested on: Hs-578T
[19] = tested on: IGROV-1
[20] = tested on: K562
[21] = tested on: KM12
[22] = tested on: LOX IMVI
[23] = tested on: M14
[24] = tested on: MCF7
[25] = tested on: MDA-MB-231
[26] = tested on: MDA-MB-435
[27] = tested on: MDA-N
[28] = tested on: MOLT-4
[29] = tested on: Malme-3M
[30] = tested on: NCI-H226
[31] = tested on: NCI-H23
[32] = tested on: NCI-H460
[33] = tested on: NCI-H522
[34] = tested on: NCI/ADR-RES
[35] = tested on: OVCAR-3
[36] = tested on: OVCAR-4
[37] = tested on: OVCAR-5
[38] = tested on: OVCAR-8
[39] = tested on: PC-3
[40] = tested on: RPMI-8226
[41] = tested on: RXF 393
[42] = tested on: SF-268
[43] = tested on: SF-295
[44] = tested on: SF-539
[45] = tested on: SK-MEL-28
[46] = tested on: SK-MEL-2
[47] = tested on: SK-MEL-5
[48] = tested on: SK-OV-3
[49] = tested on: SN12C
[50] = tested on: SNB-19
[51] = tested on: SNB-75
[52] = tested on: SR
[53] = tested on: SW-620
[54] = tested on: T47D
[55] = tested on: TK-10
[56] = tested on: U-251
[57] = tested on: UACC-257
[58] = tested on: UACC-62
[59] = tested on: UO-31
[60] = tested on: HOP-18
[61] = tested on: M19-MEL

SMILES: COC(=O)/C=C\C(C#N)(C#N)/N=C/c1cc(Br)cs1
- GI50 [1]: 1940 nM (inactive)
- GI50 [2]: 18500 nM (inactive)
- GI50 [3]: 18000 nM (inactive)
- GI50 [4]: 2220 nM (inactive)
- GI50 [5]: 7080 nM (inactive)
- GI50 [6]: 2960 nM (inactive)
- GI50 [7]: 91.4 nM (active)
- GI50 [8]: 1980 nM (inactive)
- GI50 [9]: 7310 nM (inactive)
- GI50 [10]: 7450 nM (inactive)
- GI50 [11]: 16000 nM (inactive)
- GI50 [12]: 1760 nM (inactive)
- GI50 [13]: 2710 nM
- GI50 [14]: 46.5 nM (active)
- GI50 [15]: 18600 nM (inactive)
- GI50 [16]: 2190 nM (inactive)
- GI50 [17]: 1940 nM (inactive)
- GI50 [18]: 22800 nM (inactive)
- GI50 [19]: 3440 nM (inactive)
- GI50 [20]: 562 nM (active)
- GI50 [21]: 21000 nM (inactive)
- GI50 [22]: 2060 nM (inactive)
- GI50 [23]: 2510 nM (inactive)
- GI50 [24]: 1510 nM (inactive)
- GI50 [25]: 9350 nM (inactive)
- GI50 [26]: 2380 nM (inactive)
- GI50 [27]: 2670 nM (inactive)
- GI50 [28]: 1890 nM (inactive)
- GI50 [29]: 1710 nM (inactive)
- GI50 [30]: 19800 nM (inactive)
- GI50 [31]: 5330 nM (inactive)
- GI50 [32]: 19600 nM (inactive)
- GI50 [33]: 1500 nM (inactive)
- GI50 [34]: 15700 nM (inactive)
- GI50 [35]: 7000 nM (inactive)
- GI50 [36]: 7910 nM (inactive)
- GI50 [37]: 6840 nM (inactive)
- GI50 [38]: 3840 nM (inactive)
- GI50 [39]: 5090 nM (inactive)
- GI50 [40]: 3240 nM (inactive)
- GI50 [41]: 2270 nM (inactive)
- GI50 [42]: 6100 nM (inactive)
- GI50 [43]: 17900 nM (inactive)
- GI50 [44]: 4800 nM (inactive)
- GI50 [45]: 5320 nM (inactive)
- GI50 [46]: 10600 nM (inactive)
- GI50 [47]: 6300 nM (inactive)
- GI50 [48]: 19500 nM (inactive)
- GI50 [49]: 3180 nM (inactive)
- GI50 [50]: 18500 nM (inactive)
- GI50 [51]: 16200 nM (inactive)
- GI50 [52]: 2320 nM (inactive)
- GI50 [53]: 1150 nM (inactive)
- GI50 [54]: 2120 nM (inactive)
- GI50 [55]: 3110 nM (inactive)
- GI50 [56]: 13900 nM (inactive)
- GI50 [57]: 2670 nM (inactive)
- GI50 [58]: 17700 nM (inactive)
- GI50 [59]: 2140 nM (inactive)

SMILES: O=C1C=C[C@@]23C[C@@H](NC4=C2C2=NCCc5c[nH]c(c52)C4=O)SC3=C1
- GI50 [3]: 14600 nM (inactive)
- GI50 [9]: 18200 nM (inactive)
- GI50 [60]: 16700 nM (inactive)
- GI50 [20]: 4740 nM (inactive)
- GI50 [61]: 2030 nM (inactive)
- GI50 [24]: 3820 nM (inactive)
- GI50 [31]: 3490 nM (inactive)
- GI50 [51]: 19800 nM (inactive)
- GI50 [53]: 3150 nM (inactive)

SMILES: CC1(C)Cc2nc3c(cc2C(=O)C1/C=N/C(C#N)=C(\N)C#N)C(=O)C(/C=N/C(C#N)=C(\N)C#N)C(C)(C)C3 (configuration not stated)
- GI50 [1]: 1840 nM (inactive)
- GI50 [2]: 4170 nM (inactive)
- GI50 [3]: 2600 nM (inactive)
- GI50 [4]: 2280 nM (inactive)
- GI50 [5]: 2190 nM (inactive)
- GI50 [6]: 1650 nM (inactive)
- GI50 [7]: 2390 nM (inactive)
- GI50 [8]: 2540 nM (inactive)
- GI50 [9]: 2300 nM (inactive)
- GI50 [10]: 2030 nM (inactive)
- GI50 [11]: 4520 nM (inactive)
- GI50 [12]: 1540 nM (inactive)
- GI50 [13]: 2360 nM
- GI50 [14]: 2040 nM (inactive)
- GI50 [15]: 2330 nM (inactive)
- GI50 [16]: 1700 nM (inactive)
- GI50 [17]: 2540 nM (inactive)
- GI50 [18]: 916 nM (active)
- GI50 [19]: 1520 nM (inactive)
- GI50 [20]: 3050 nM (inactive)
- GI50 [21]: 1770 nM (inactive)
- GI50 [22]: 2090 nM (inactive)
- GI50 [23]: 1670 nM (inactive)
- GI50 [24]: 2150 nM (inactive)
- GI50 [25]: 2820 nM (inactive)
- GI50 [26]: 2080 nM (inactive)
- GI50 [27]: 2410 nM (inactive)
- GI50 [28]: 2370 nM (inactive)
- GI50 [29]: 1520 nM (inactive)
- GI50 [30]: 2840 nM (inactive)
- GI50 [31]: 2710 nM (inactive)
- GI50 [32]: 2610 nM (inactive)
- GI50 [33]: 705 nM (active)
- GI50 [34]: 6470 nM (inactive)
- GI50 [35]: 2770 nM (inactive)
- GI50 [36]: 4040 nM (inactive)
- GI50 [37]: 2340 nM (inactive)
- GI50 [38]: 2360 nM (inactive)
- GI50 [39]: 1990 nM (inactive)
- GI50 [40]: 2740 nM (inactive)
- GI50 [41]: 1680 nM (inactive)
- GI50 [42]: 1640 nM (inactive)
- GI50 [43]: 2540 nM (inactive)
- GI50 [44]: 1180 nM (inactive)
- GI50 [45]: 1980 nM (inactive)
- GI50 [46]: 2200 nM (inactive)
- GI50 [47]: 2000 nM (inactive)
- GI50 [48]: 3020 nM (inactive)
- GI50 [49]: 2060 nM (inactive)
- GI50 [50]: 4680 nM (inactive)
- GI50 [51]: 1660 nM (inactive)
- GI50 [52]: 3080 nM (inactive)
- GI50 [53]: 2570 nM (inactive)
- GI50 [54]: 1320 nM (inactive)
- GI50 [55]: 4800 nM (inactive)
- GI50 [56]: 2040 nM (inactive)
- GI50 [57]: 2510 nM (inactive)
- GI50 [58]: 1830 nM (inactive)
- GI50 [59]: 1840 nM (inactive)
